Test system: HBV
Experiment: HBV inhibition assay: anti-HBV activity in vitro in HepG2.2.15 cells (extracellular HBV DNA by qPCR)
Assay type: cell-based
Details: Hepatitis B virus, 120 h, five days after compound treatment, extracellular HBV DNA in culture supernatant by qPCR, concentration at which HBV replication is inhibited by 50%
From the text: Example 441: HBV Inhibition Assays
Cell Line and Culture Conditions:
HepG2.2.15 is a stably-transfected cell line containing the HBV genome. It is derived from the hepatoblastoma cell line Hep G2 (American Type Culture Collection, ATCC® HB-8065™) by the published procedures described in reference: MA Selles et al. Proc. Natl. Acad. Sci. USA 1987, 84, 1005-1009. The cell line was maintained in Dulbecco's modified Eagle's medium (DMEM)-F12 medium supplemented with 10% fetal bovine serum, 100 U/mL penicillin, 100 μg/mL streptomycin, and 0.5 mg/mL of G418.
Anti-HBV Activity In Vitro:
HepG2.2.15 cells were seeded into 96-well plates (3×10^4 cells in 100 μL media per well) and incubated overnight at 37° C. The test compounds were serially half-log diluted in DMSO, then diluted 100 times in culture media. 100 μL diluted compounds were added into the plates to reach 0.5% final concentration of DMSO in every well. Five days after compound treatment, culture supernatant was collected for further analysis.
For quantitative PCR detection of extracellular HBV DNA, culture supernatant was processed by Proteinase K digestion. After heat inactivation of the enzyme, the samples were subjected to HBV DNA quantification by qPCR. The effective compound concentration at which
HBV replication is inhibited by 50% (EC50) was determined.

Structure (SMILES)	EC50 [nM]
Cc1cc(-c2cnn3c2CN(C(=O)Nc2ccc(F)c(Cl)c2)CC3)ncc1F [Example 68, N-(3-chloro-4-fluoro-phenyl)-3-(5-fluoro-4-methyl-2-pyridyl)-6,7-dihydro-4H-pyrazolo[1,5-a]pyrazine-5-carboxamide]	75
O=C(Nc1ccc(F)c(Cl)c1)N1CCn2ncc(C3CCCCC3)c2C1 [Example 73, N-(3-chloro-4-fluoro-phenyl)-3-cyclohexyl-6,7-dihydro-4H-pyrazolo[1,5-a]pyrazine-5-carboxamide]	45
N#Cc1cc(NC(=O)N2CCn3ncc(-c4ccc(F)cn4)c3C2)ccc1F [Example 76, N-(3-cyano-4-fluoro-phenyl)-3-(5-fluoro-2-pyridyl)-6,7-dihydro-4H-pyrazolo[1,5-a]pyrazine-5-carboxamide]	95
O=C(Nc1ccc(F)c(Cl)c1)N1CCn2ncc(C3CCCC3)c2C1 [Example 78, N-(3-chloro-4-fluoro-phenyl)-3-cyclopentyl-6,7-dihydro-4H-pyrazolo[1,5-a]pyrazine-5-carboxamide]	29
N#Cc1cc(NC(=O)N2CCn3ncc(C4CCCC4)c3C2)ccc1F [Example 79, N-(3-cyano-4-fluoro-phenyl)-3-cyclopentyl-6,7-dihydro-4H-pyrazolo[1,5-a]pyrazine-5-carboxamide]	28
Cc1cc(NC(=O)N2CCn3ncc(-c4ccc(F)cc4)c3C2)ccc1F [Example 81, N-(4-fluoro-3-methyl-phenyl)-3-(4-fluorophenyl)-6,7-dihydro-4H-pyrazolo[1,5-a]pyrazine-5-carboxamide]	32
CC1Cn2ncc(-c3ccc(F)cc3F)c2CN1C(=O)Nc1ccc(F)c(C#N)c1 (stereo not drawn) [Example 85, N-(3-cyano-4-fluoro-phenyl)-3-(2,4-difluorophenyl)-6-methyl-6,7-dihydro-4H-pyrazolo[1,5-a]pyrazine-5-carboxamide]	11
CC1Cn2ncc(-c3ccc(F)cc3)c2CN1C(=O)Nc1ccc(F)c(C#N)c1 (stereo not drawn) [Example 86, N-(3-cyano-4-fluoro-phenyl)-3-(4-fluorophenyl)-6-methyl-6,7-dihydro-4H-pyrazolo[1,5-a]pyrazine-5-carboxamide]	66
CC1Cn2ncc(-c3ccc(F)cc3F)c2CN1C(=O)Nc1ccc(F)c(Cl)c1 (stereo not drawn) [Example 92, N-(3-chloro-4-fluoro-phenyl)-3-(2,4-difluorophenyl)-6-methyl-6,7-dihydro-4H-pyrazolo[1,5-a]pyrazine-5-carboxamide]	13
CC1Cn2ncc(-c3ccc(F)cn3)c2CN1C(=O)Nc1ccc(F)c(Cl)c1 (stereo not drawn) [Example 94, N-(3-chloro-4-fluoro-phenyl)-3-(5-fluoro-2-pyridyl)-6-methyl-6,7-dihydro-4H-pyrazolo[1,5-a]pyrazine-5-carboxamide]	33
CC1Cn2ncc(C3CCCC3)c2CN1C(=O)Nc1ccnc(Cl)c1 (stereo not drawn) [Example 96, N-(2-chloro-4-pyridyl)-3-cyclopentyl-6-methyl-6,7-dihydro-4H-pyrazolo[1,5-a]pyrazine-5-carboxamide]	72
CC1Cn2ncc(-c3ccc(F)cn3)c2CN1C(=O)Nc1cc(F)c(F)c(F)c1 (stereo not drawn) [Example 99, 3-(5-fluoro-2-pyridyl)-6-methyl-N-(3,4,5-trifluorophenyl)-6,7-dihydro-4H-pyrazolo[1,5-a]pyrazine-5-carboxamide]	24
CC1Cn2ncc(-c3ccc(F)cn3)c2CN1C(=O)Nc1ccc(F)c(C#N)c1 (stereo not drawn) [Example 100, N-(3-cyano-4-fluoro-phenyl)-3-(5-fluoro-2-pyridyl)-6-methyl-6,7-dihydro-4H-pyrazolo[1,5-a]pyrazine-5-carboxamide]	61
C[C@H]1Cn2ncc(-c3ccc(F)cc3)c2CN1C(=O)Nc1ccc(F)c(Cl)c1 [Example 102, (6S)—N-(3-chloro-4-fluoro-phenyl)-3-(4-fluorophenyl)-6-methyl-6,7-dihydro-4H-pyrazolo[1,5-a]pyrazine-5-carboxamide]	14
C#Cc1cc(NC(=O)N2CCn3ncc(-c4ccc(F)cc4)c3C2)ccc1F [Example 122, N-(3-ethynyl-4-fluoro-phenyl)-3-(4-fluorophenyl)-6,7-dihydro-4H-pyrazolo[1,5-a]pyrazine-5-carboxamide]	93
O=C(Nc1ccc(F)c(Cl)c1)N1CCn2cnc(-c3ccc(F)cc3)c2C1 [Example 127, N-(3-chloro-4-fluoro-phenyl)-1-(4-fluorophenyl)-6,8-dihydro-5H-imidazo[1,5-a]pyrazine-7-carboxamide]	86
C#Cc1cc(NC(=O)N2CCn3cnc(-c4ccc(F)cc4F)c3C2)ccc1F [Example 134, 1-(2,4-difluorophenyl)-N-(3-ethynyl-4-fluoro-phenyl)-6,8-dihydro-5H-imidazo[1,5-a]pyrazine-7-carboxamide]	85

Structure (SMILES)	EC50 [nM]
O=C(Nc1ccc(F)c(Cl)c1)N1CCn2cnc(-c3ccc(F)cc3F)c2C1 [Example 135, N-(3-chloro-4-fluoro-phenyl)-1-(2,4-difluorophenyl)-6,8-dihydro-5H-imidazo[1,5-a]pyrazine-7-carboxamide]	23
N#Cc1cc(NC(=O)N2CCn3cnc(-c4ccc(F)cc4F)c3C2)ccc1F [Example 136, N-(3-cyano-4-fluoro-phenyl)-1-(2,4-difluorophenyl)-6,8-dihydro-5H-imidazo[1,5-a]pyrazine-7-carboxamide]	56
O=C(Nc1cc(F)c(F)c(F)c1)N1CCn2cnc(-c3ccc(F)cc3F)c2C1 [Example 138, 1-(2,4-difluorophenyl)-N-(3,4,5-trifluorophenyl)-6,8-dihydro-5H-imidazo[1,5-a]pyrazine-7-carboxamide]	37
C#Cc1cc(NC(=O)N2CCn3ncc(-c4ccc(F)cc4F)c3C2)ccc1F [Example 139, 3-(2,4-difluorophenyl)-N-(3-ethynyl-4-fluoro-phenyl)-6,7-dihydro-4H-pyrazolo[1,5-a]pyrazine-5-carboxamide]	46
N#Cc1cc(NC(=O)N2CCn3ncc(-c4ccc(F)cc4F)c3C2)ccc1F [Example 142, N-(3-cyano-4-fluoro-phenyl)-3-(2,4-difluorophenyl)-6,7-dihydro-4H-pyrazolo[1,5-a]pyrazine-5-carboxamide]	56
O=C(Nc1ccc(F)c(C2CC2)c1)N1CCn2ncc(-c3ccc(F)cc3F)c2C1 [Example 150, N-(3-cyclopropyl-4-fluoro-phenyl)-3-(2,4-difluorophenyl)-6,7-dihydro-4H-pyrazolo[1,5-a]pyrazine-5-carboxamide]	58
O=C(Nc1ccc(F)c(Cl)c1)N1CCn2nnc(-c3ccc(F)cc3F)c2C1 [Example 155, N-(3-chloro-4-fluoro-phenyl)-3-(2,4-difluorophenyl)-6,7-dihydro-4H-triazolo[1,5-a]pyrazine-5-carboxamide]	40
Cc1cc(NC(=O)N2Cc3c(-c4ccc(F)cn4)cnn3CC2C)cc(F)c1F (stereo not drawn) [Example 156, N-(3,4-difluoro-5-methyl-phenyl)-3-(5-fluoro-2-pyridyl)-6-methyl-6,7-dihydro-4H-pyrazolo[1,5-a]pyrazine-5-carboxamide]	25
CC1Cn2ncc(-c3ccc(F)cn3)c2CN1C(=O)Nc1ccc(F)c(C2CC2)c1 (stereo not drawn) [Example 157, N-(3-cyclopropyl-4-fluoro-phenyl)-3-(5-fluoro-2-pyridyl)-6-methyl-6,7-dihydro-4H-pyrazolo[1,5-a]pyrazine-5-carboxamide]	83
CC1Cn2ncc(-c3ccc(F)cn3)c2CN1C(=O)Nc1cc(F)c(F)c(Cl)c1 (stereo not drawn) [Example 158, N-(3-chloro-4,5-difluoro-phenyl)-3-(5-fluoro-2-pyridyl)-6-methyl-6,7-dihydro-4H-pyrazolo[1,5-a]pyrazine-5-carboxamide]	44
Cc1cc(NC(=O)N2CCn3cnc(-c4ccc(F)cc4F)c3C2)cc(F)c1F [Example 167, N-(3,4-difluoro-5-methyl-phenyl)-1-(2,4-difluorophenyl)-6,8-dihydro-5H-imidazo[1,5-a]pyrazine-7-carboxamide]	15
O=C(Nc1ccc(F)c(Cl)c1)N1CCn2ncc(N3CCCC3=O)c2C1 [Example 170, N-(3-chloro-4-fluoro-phenyl)-3-(2-oxopyrrolidin-1-yl)-6,7-dihydro-4H-pyrazolo[1,5-a]pyrazine-5-carboxamide]	46
Cc1cnn(-c2cnn3c2CN(C(=O)Nc2ccc(F)c(Cl)c2)CC3)c1 [Example 171, N-(3-chloro-4-fluoro-phenyl)-3-(4-methylpyrazol-1-yl)-6,7-dihydro-4H-pyrazolo[1,5-a]pyrazine-5-carboxamide]	45
CC1Cn2ncc(-c3ccc(F)cc3F)c2CN1C(=O)Nc1ccnc(F)c1 (stereo not drawn) [Example 174, 3-(2,4-difluorophenyl)-N-(2-fluoro-4-pyridyl)-6-methyl-6,7-dihydro-4H-pyrazolo[1,5-a]pyrazine-5-carboxamide]	66
Cc1cc(NC(=O)N2CCn3ncc(-c4ccc(F)cc4)c3C2)ccn1 [Example 176, 3-(4-fluorophenyl)-N-(2-methyl-4-pyridyl)-6,7-dihydro-4H-pyrazolo[1,5-a]pyrazine-5-carboxamide]	52
CC1Cn2ncc(-c3ccc(F)cc3F)c2CN1C(=O)Nc1cc(F)c(F)c(F)c1 (stereo not drawn) [Example 178, 3-(2,4-difluorophenyl)-6-methyl-N-(3,4,5-trifluorophenyl)-6,7-dihydro-4H-pyrazolo[1,5-a]pyrazine-5-carboxamide]	13

Reference: US11168086B2, “Methods of synthesizing pyrazine compounds” (Hoffmann-La Roche Inc., priority 2015, dated 2021)
